Data on seven compounds can be found in patent US20260174721A1, “AGENT FOR RESTORING METAL HOMEOSTASIS” (Oxford Antibiotic Group GmbH, priority 2022, published 2026).

In assay [1] the test system is transgenic C. elegans strain NL5901. Nature of the assay: α-synuclein test system: reduction of α-synuclein-GFP expression in transgenic C. elegans strain NL5901 (Parkinson testing). The class given is in vivo, Caenorhabditis elegans. To be noted: NL5901, GFP readout 24 to 48 hours, tested at 1 mg/ml, 100 μg/ml, 10 μg/ml, — = no effect even at 1 mg/ml; for minimal effective concentration: Caenorhabditis elegans, read-out: Parkinson: concentration range in which a reduction in α-synuclein expression was detectable. The procedure: (§1) The same substances as above were tested in a 96-well procedure in the initially mentioned screening assay using the nematode Caenorhabditis elegans (Pretsch et al., see above) in a standardized α-synuclein test system using the transgenic C. elegans strain NL5901 for their potential suitability as an agent for treating Parkinson's disease. This worm strain expresses human α-synuclein bound to green fluorescent protein (GFP) in all muscle cells. GFP labeling allows a direct detection of expressed protein levels using a multiplate reader for 24 to 48 hours.
(§2) For this purpose, the substances were again tested at concentrations of 1 mg/ml, 100 μg/ml, and 10 μg/ml, but this time in comparison to the initially mentioned Parkinson therapeutic agent levodopa as a control.

For assay [2], the system named is transgenic C. elegans strain CL2659. Description: β-amyloid test system: delay of paralysis in transgenic C. elegans strain CL2659 (Alzheimer testing). The class given is in vivo, Caenorhabditis elegans. Conditions: CL2659 stage L3 larvae, 48 hours, tested at 1 mg/ml, 100 μg/ml, 10 μg/ml, — = no effect even at 1 mg/ml; for minimal effective concentration: Caenorhabditis elegans, read-out: Alzheimer: concentration range in which a delay in paralysis was observed. The protocol: For this purpose, stage L3 worm larvae were used at a density of 10-20 worms per well. The expression of β-amyloid in the muscle cells was induced by increasing the temperature, and the associated paralysis was recorded at regular intervals until the end of the test after 48 hours.
(§3) For this purpose, the above substances were tested at concentrations of 1 mg/ml, 100 μg/ml, and 10 μg/ml in comparison with quercetin as a […] control.

In assay [3] the test system is Caenorhabditis elegans. Nature of the assay: C. elegans nematode assay, overall rating over the Alzheimer and Parkinson tests. Type of assay: in vivo. To be noted: for minimal effective concentration: Caenorhabditis elegans, read-out: Score. The protocol:
The substances (1) to (41) and (101) to (108), prepared in the above synthesis examples or purchased, were tested for their potential suitability as an agent for treating Alzheimer's disease in a 96-well procedure in the initially mentioned screening assay using the nematode Caenorhabditis elegans (Pretsch et al., see above) in a standardized β-amyloid test system using the transgenic C. elegans strain CL2659. For this purpose, stage L3 worm larvae were used at a density of 10-20 worms per well. The expression of β-amyloid in the muscle cells was induced by increasing the temperature, and the associated paralysis was recorded at regular intervals until the end of the test after 48 hours.
as §3, §1, §2

Assay [4] concerns mouse test model. Conditions: Parkinson's disease; cited from earlier work.
Assay [5] relates to metallothioneins. Conditions: C. elegans nematode assay; cited from earlier work.
The mark [6] stands for this setting: rating from the effective concentration in both tests.

For the compound `CC12CC3CC(C)(C1)CC(NC(=O)CC(=O)NCCCN1CCOCC1)(C3)C2` [(34), N-(3,5-dimethyladamantan-1-yl)-N′-(3-morpholinopropyl)malonic acid diamide], the minimal effective concentration is more than 10 µg/mL in assay [1], more than 10 µg/mL in assay [2] and 10 to 100 µg/mL in assay [3] (setting [6]).

Turning to `COc1ccccc1N1CCN(C(=O)CC(=O)NC23CC4CC(C)(CC(C)(C4)C2)C3)CC1` [(38), N-(3,5-dimethyladamantan-1-yl)-N′-4-(2-methoxyphenyl)piperazine malonic acid diamide], the “Parkinson: concentration range in which a reduction in α-synuclein expression was detectable” value in assay [1] was more than 100 µg/mL. Besides, the “Alzheimer: concentration range in which a delay in paralysis was observed” value in assay [2] was more than 100 µg/mL. Further, the Score entry in assay [3] (setting [6]) was “++ (a compound that is already effective at a concentration >10 μg/ml and therefore rated “++”)”.

With `CC12CC3CC(C)(C1)CC(NC(=O)CC(=O)N1CCN(CC(=O)N4CCOCC4)CC1)(C3)C2` [(41), N-(3,5-dimethyladamantan-1-yl)-N′-4-(2-morpholino-2-oxoethyl)piperazine malonic acid diamide], the minimal effective concentration in assay [1] is more than 10 µg/mL; in assay [2] it was more than 10 µg/mL; in assay [3] (setting [6]), 10 to 100 µg/mL. Also, the “concentration from which the compound was effective” value in assay [3] (both tests) was more than 10 µg/mL.

On to `CC(C)(S)[C@@H](N)C(=O)O` [D-penicillamine, 2-amino-3-mercapto-3-methyl butanoic acid], for which the “neuroprotective effect / neurotoxicity” value in assay [4] was “did not show any neuroprotective effect”.

Consider `Oc1c(I)cc(Cl)c2cccnc12` [clioquinol, 5-chloro-7-iodoquinolin-8-ol], for which, in assay [5], the “body's own biosynthesis of metallothioneins” value is reported as “prolongation of the body's own biosynthesis of metallothioneins”.

Take `CCN(CC)C(=S)S` [diethyl dithiocarbamate, diethyldithiocarbamate]: the “neuroprotective effect / neurotoxicity” value in assay [4] was “higher neurotoxicity”.

In the case of `Cc1cc(O)c2c(c1)C(=O)c1cc(O)cc(O)c1C2=O` [emodin, 1,3,8-trihydroxy-6-methylanthracene-9,10-dione], the “body's own biosynthesis of metallothioneins” value in assay [5] is recorded as “prolongation of the body's own biosynthesis of metallothioneins”.
